The results in this text go back to patent publication US10548911B2, “Small molecule anti-scarring agents” (UNIVERSITY OF ROCHESTER, priority 2014, dated 2020).

“Also recorded” adds a separate entry of the source.

For data set [1], the system named is primary human orbital fibroblasts. The data set can be described thus: TGFβ-induced myofibroblast formation, αSMA Western blot, primary human orbital fibroblasts. The note with it: for overt toxicity / TGFβ-induced myofibroblast differentiation (αSMA expression): 2-500 μM. (In general: A western blot detects proteins with antibodies after separation by electrophoresis.)
Experimental: Total protein was isolated from 0.5-2×10^6 cells and lysed in 60 mM Tris, pH 6.8, 2% SDS containing 1× protease inhibitor cocktail (Sigma, St. Louis, Mo.). The lysates were passed through a 26 gauge needle 5-6 times to shear genomic DNA. Protein concentrations were determined using the detergent compatible protein assay (BioRad). Total protein (1-10 ug per lane) was subjected to SDS-PAGE. Protein gels were transferred to PVDF membrane (Millipore) and probed with antibodies as specified. Western blot band intensities were quantified using ImageLab software (BioRad). Protein expression was normalized to β-tubulin levels.
Primary human orbital fibroblasts, primary human lung fibroblasts, and primary mouse lung fibroblasts were treated with TGFβ and HCPT (50 nM, 500 nM, and 5000 nM) or SNC (500 nM) or AXD (0.5 μM, 5 μM, and 50 μM) to assess the ability of HCPT to inhibit myofibroblast formation. […] Western blots were performed using cell lysates from the fibroblasts exposed to TGFβ to assess TGFβ-dependent αSMA expression.
Primary human orbital fibroblasts were treated with TGFβ and either 6-formylindolo(3,2-b)carbazole (“FICZ”, 1 μM), Omeprazole (“Ome”, 2 μM, 10 μM, 50 μM, 100 μM, 250 μM, 500 μM), or Flutamide (“Flut”, 2 μM, 10 μM, 50 μM, 100 μM, 250 μM, 500 μM) to assess their ability to inhibit myofibroblast formation. […] Western blots were performed using cell lysates from the fibroblasts exposed to TGFβ to assess TGFβ-dependent αSMA expression. Densitometry analyses of the Western blots were also performed.

For data set [2], the system named is TGFβ-induced SBE-luciferase activity. As to the kind of experiment: Secondary dual luciferase screen (SBE-luciferase normalized to constitutive Renilla luciferase). The following applies: secondary dual luciferase screen, several doses (low micromolar). The data set is classed as cell-based, human. The protocol: FIG. 1A is a diagram of Smad-dependent reporter construct. Four tandem Smad binding elements (SBE) were inserted upstream of the minimal Thymidine Kinase (TK) promoter. Downstream of the promoter is a destabilized version of the firefly luciferase gene (luc2P) present in the pLuc2P-Hygro plasmid which also harbors the hygromycin resistance gene. The plasmid was introduced into HEK293FT cell line and individual colonies were selected with hygromycin (200 ug/ml) to develop a Smad/TGFβ dependent-luciferase reporter cell line. FIG. 1B is a graph illustrating the response of the reporter cell line to 1 ng/ml treatment of TGFβ for 20 hours, which results in an approximately 20-fold increase of luciferase activity.
They are: Benzbromarone (“BZB”), Bithionate sodium (“BTS”), Piplartine (piperlongumine) (“PPT”), Amsacrine (“ASC”), and Alexidine (“AXD”). A secondary luciferase screening assay was performed to determine specificity and dose responsiveness of these compounds in comparison to salinomycin (“SNC”). The secondary screen utilizes dual luciferase technology that includes the above mentioned SBE-luciferase in addition to a Renilla luciferase that is under control of the constitutive SV40 promoter. Therefore the SBE-luciferase activity can be normalized to the Renilla luciferase activity to control for toxicity and non-specific effects. The secondary screen can thus be used to remove small molecules that display overt toxicity and/or non-specific effects on the primary assay.

In data set [3] the test system is TGFβ-dependent myofibroblast formation in primary human fibroblasts. The data set can be described thus: Myofibroblast formation assay in primary human fibroblasts (morphology, Western blot) for Spectrum hits. Type of data set: cell-based. The note with it: for α-SMA and calponin expression in human fibroblasts: FIG. 14 lanes: PPT 1, 5 uM, AXD 0.1, 1 uM, SNC 100 nM, 1 uM; for α-SMA and calponin expression in human fibroblasts / TGFβ-dependent αSMA and calponin (marker) expression / myofibroblast formation / phenotype: BTS, ASC; for TGFβ-dependent αSMA and calponin (marker) expression: higher dose: PPT 5 μM; for TGFβ-dependent αSMA and calponin (marker) expression / myofibroblast formation / phenotype: AXD 1 μM; for myofibroblast formation / phenotype: lowest effective dose from secondary screen: PPT 5 μM, SNC 0.1 μM, TGFβ 1 ng/ml, 72 hours. The method, then:
Using the lowest effective dose from the secondary screening assay, PPT (5 μM), ASC (1 μM), BTS (1 μM), and AXD (1 μM) were compared to 0.1 μM SNC using primary human fibroblasts (FIG. 13). The myofibroblast formation assay consists of the following protocol: fibroblasts are treated with the aforementioned small molecules and treated with TGFβ (1 ng/ml) for 72 hours. The cells were then either photographed for morphological analysis or collected, lysed and analyzed by Western blot for the myofibroblast markers alpha-smooth muscle actin (αSMA) and calponin. β-tubulin was used as a loading control.
PPT was used at 1 and 5 μM (lanes 3 and 4), BTS was used at 0.1 and 1 μM (lanes 5 and 6), ASC was used at 0.1 and 1 μM (lanes 7 and 8), SNC was used at 100 nM and 1 μM (lanes 9 and 10), and AXD was used at 0.1 and 1 μM (lanes 11 and 12).

Data set [4] has as its system TGFβ-induced luciferase activity. The data set can be described thus: Spectrum collection small molecule screen with TGFβ-dependent SBE-luciferase HEK293FT reporter cell line. The following applies: HEK293FT-luc reporter line. The data set is classed as cell-based, human. From the text:
The minimal thymidine kinase promoter was amplified by PCR with the following forward and reverse primers, of which the forward primer contained four tandem Smad binding elements (SBE):
Restriction sites in the primers are underlined. The resultant PCR product was TOPO cloned (Invitrogen) and the correct insert was verified by DNA sequencing. The construct was digested with SacI-HindIII and the SBEx4-TK insert was purified and ligated with the pGL4.15 vector (Promega). Clones were verified by restriction digest and then tested for TGFβ responsiveness in transient transfections of 293FT cells. […] Clones were selected by treatment with 200 μg/ml hygromycin. 20 clones were selected and screened for TGFβ-induced luciferase activity. One clone that was robustly responsive was subsequently used in the small molecule screen.
Excessive scarring results from the formation of too many myofibroblasts and the production of too much extracellular matrix material such as collagen. Since TGFβ drives the formation of myofibroblasts in part through activating the Smad pathway, a reporter construct was designed to serve as a measure of TGFβ-induced Smad activity (FIG. 1A). Four tandem Smad binding elements (SBE) were inserted upstream of the minimal thymidine kinase promoter. The SBEx4-TK promoter was inserted into the pGL4.15 vector which contains a destabilized firefly luciferase gene and the hygromycin resistance gene. The pSBEx4-TK-luc-Hygro plasmid was then introduced into HEK293FT cells by lipofection. Stable clones were generated and screened for TGFβ induced luciferase activity. One clone was selected that consistently gave a 15 to 20-fold induction of luciferase activity when cells were treated with TGFβ for 24 hours (FIG. 1B).
To find compounds that inhibit TGFβ activity and thus may be novel anti-scarring compounds, the Spectrum collection of 2,300 small molecules was screened with the cell line. […] Salinomycin, an antibiotic produced from Streptomyces albus is used as coccidiostat agent in animal feed (Knirschova et al., “Multiple regulatory genes in the salinomycin biosynthetic gene cluster of Streptomyces albus CCM 4719,” Folia Microbiologica 52:359-365 (2007), which is hereby incorporated by reference in its entirety). […] Thus, further investigation was made to assess the use of salinomycin as an anti-scarring agent.

In the next data set the test system is human fibroblasts. As to the kind of experiment: BrdU incorporation assay (cell proliferation). The data set is classed as cell-based. The protocol:
Human fibroblasts were seeded on a 96-well plate at a density of 1×10^5 cells/well. Cells were treated in triplicate. Cell proliferation was determined using the bromodeoxyuridine (BrdU) assay following manufacturer's instructions. Briefly, cells were treated with a BrdU label at a 1:2000 dilution for 24 h after the initial 72 h treatment with TGFβ+/−drugs. BrdU incorporation was measured using the BrdU Cell Proliferation Assay kit (Calbiochem, San Diego, Calif.) at 450-540 nm using a Varioskan microplate reader.
While salinomycin and other polyether ionophores blocked myofibroblast formation, it was next assessed whether these effects were a result of toxicity and/or due to a block of cell proliferation. Though the treatment doses are relatively low (efficacy in 100-250 nM range), a loss of cell viability could still be a possibility. To test this, human fibroblasts were treated with vehicle (DMSO), 50-250 nM salinomycin alone, TGFβ or TGFβ plus 250 nM salinomycin. As a positive control, fibroblasts were treated with the cytotoxic drug, puromycin. Treated cells were cultured in the presence of alamar blue reagent, which measures mitochondrial oxidation-reduction (REDOX) potential and serves as a quantitative viability sensor. After 72 hours of culture, alamar blue fluorescence was measured to assay cell viability (FIG. 4A). […] It was also tested whether salinomycin affects basal fibroblast proliferation. To address this, cells were treated with vehicle or 250 nm of either salinomycin or narasin for 24 hours in the presence of bromodeoxyuridine (BrdU) to measure cell proliferation ([…], first three bars). […] BrdU was also added to cells treated with TGFβ in the presence or absence of 250 nM salinomycin or narasin (FIG. 4B, last three bars). As expected, TGFβ induced human fibroblast proliferation. Remarkably, both salinomycin and narasin were able to beneficially block TGFβ induced proliferation by 4 to 5 fold, without affecting basal proliferation levels.
Background: Incorporation of labelled thymidine or its analogues reports DNA synthesis.

In data set [5] the test system is TGFβ-induced myofibroblast formation in human fibroblasts. The data set can be described thus: Western blot of myofibroblast markers αSMA and calponin in TGFβ-treated human (TED orbital) fibroblasts. The following applies: 250 nM, TGFβ, 72 hours. Type of data set: cell-based. The protocol: TED fibroblasts were treated with TGFβ (1 ng/ml) in the presence or absence of 10-250 nM salinomycin for 72 hours to allow formation of myofibroblasts. After 72 hours, cells were harvested and analyzed by Western blot. As expected, the fibroblasts robustly responded to TGFβ, expressing high levels of αSMA and calponin (FIG. 2A). […] At 50 nM salinomycin, expression of αSMA was reduced by 4-fold over TGFβ treatment alone. Furthermore, at 250 nM salinomycin, αSMA expression was reduced by approximately 16-fold, to levels at or below untreated fibroblasts. […] Another key role of myofibroblasts in scar formation is the production of collagen. Whether salinomycin could block myofibroblast collagen production was assessed. Cells were treated with TGFβ and salinomycin as above and after 72 hours, culture medium was collected and analyzed for collagen levels using a specific collagen I antibody and slot blot analysis.
To test these four compounds, human fibroblasts were treated with TGFβ in the absence or presence of 250 nM of either salinomycin, narasin, clioquinol or monensin for 72 hours. After treatment, cell lysates were harvested and analyzed for the presence of the myofibroblast markers, αSMA and calponin (FIG. 3B).

`COc1ccc2[nH]c([S+]([O-])Cc3ncc(C)c(OC)c3C)nc2c1` (racemic) [omeprazole]: the αSMA expression result in data set [1] (100 μM) is on record as “sub-baseline levels”. Also, in data set [1], the overt toxicity result is on record as “No overt toxicity was observed” and the “TGFβ-induced myofibroblast differentiation (αSMA expression)” value is recorded as “inhibited TGFβ-induced myofibroblast differentiation; also recorded: inhibits human orbital fibroblast to myofibroblast differentiation”.

Regarding `COc1cc(NS(C)(=O)=O)ccc1Nc1c2ccccc2nc2ccccc12` [ASC, amsacrine], the “inhibition of luciferase expression, dose responsiveness” value (from here on “inhibition of luciferase expression”) in data set [2] is given as “substantially inhibited luciferase expression; also recorded: strong luciferase inhibition”. Moreover, in data set [3], the “α-SMA and calponin expression in human fibroblasts” value (from here on “α-SMA and calponin expression”) was “inhibit β-dependent α-SMA and calponin expression”; the “TGFβ-dependent αSMA and calponin (marker) expression” value (from here on “TGFβ-dependent αSMA and calponin”) is recorded as “inhibited marker expression”; the “myofibroblast formation / phenotype” value was “inhibit myofibroblast phenotype; also recorded: inhibits myofibroblast formation”. The “inhibition of TGFβ-induced luciferase activity, initial screen” value (“inhibition … initial screen” below) in data set [4] is listed as “inhibit TGFβ-induced luciferase”.

Regarding `CCCCC(CC)CNC(=N)NC(=N)NCCCCCCNC(=N)NC(=N)NCC(CC)CCCC` (stereo not shown) [AXD, alexidine], the “inhibition of luciferase expression” value in data set [2] is listed as “substantially inhibited luciferase expression; also recorded: strong luciferase inhibition”. Besides, in data set [3], the “α-SMA and calponin expression” value is “inhibit β-dependent α-SMA and calponin expression”; the “TGFβ-dependent αSMA and calponin” value is given as “inhibited marker expression”; the “myofibroblast formation / phenotype” value is reported as “inhibit myofibroblast phenotype; also recorded: inhibits myofibroblast formation”. In addition, the “expression of Thy1” value in data set [3] (high dose, 1 μM) is “did inhibit Thy1”. Besides, the “inhibition … initial screen” value in data set [4] is listed as “inhibit TGFβ-induced luciferase”.

As for `Oc1c(Cl)cc(Cl)cc1Sc1cc(Cl)cc(Cl)c1O` [BTS, bithionate sodium], the “inhibition of luciferase expression” value in data set [2] is listed as “substantially inhibited luciferase expression; also recorded: strong luciferase inhibition”. In data set [3], the “α-SMA and calponin expression” value was “inhibit β-dependent α-SMA and calponin expression”; the “TGFβ-dependent αSMA and calponin” value was “inhibited marker expression”; the “myofibroblast formation / phenotype” value is “inhibit myofibroblast phenotype; also recorded: inhibits myofibroblast formation”. Moreover, in data set [4], the “inhibition … initial screen” value is “inhibit TGFβ-induced luciferase”.

Regarding `CCc1oc2ccccc2c1C(=O)c1cc(Br)c(O)c(Br)c1` [BZB, benzbromarone], the “inhibition of luciferase expression” value in data set [2] was “All but BZB substantially inhibited luciferase expression”. Besides, the “inhibition … initial screen” value in data set [4] is recorded as “inhibit TGFβ-induced luciferase”.

With `COc1cc(/C=C/C(=O)N2CCC=CC2=O)cc(OC)c1OC` [PPT, piplartine (piperlongumine)], the “inhibition of luciferase expression” value in data set [2] is given as “substantially inhibited luciferase expression; also recorded: strong luciferase inhibition”. In data set [3], the “α-SMA and calponin expression” value was “inhibit β-dependent α-SMA and calponin expression”; the “TGFβ-dependent αSMA and calponin” value was “inhibited marker expression”; the “myofibroblast formation / phenotype” value was “inhibit myofibroblast phenotype; also recorded: inhibits myofibroblast formation”. Also, the “inhibition … initial screen” value in data set [4] is reported as “inhibit TGFβ-induced luciferase”.

Take `CC(C)C(=O)Nc1ccc([N+](=O)[O-])c(C(F)(F)F)c1` [flutamide, Flutamide]: in data set [1], the overt toxicity result is given as “No overt toxicity was observed” and the “TGFβ-induced myofibroblast differentiation (αSMA expression)” value is “inhibited TGFβ-induced myofibroblast differentiation; also recorded: inhibits human orbital fibroblast to myofibroblast differentiation”.

With `CC[C@@H](C(=O)O)[C@@H]1O[C@@H]([C@@H](C)[C@H](O)[C@H](C)C(=O)[C@H](CC)[C@H]2O[C@]3(C=C[C@@H](O)[C@]4(CC[C@@](C)([C@H]5CC[C@](O)(CC)[C@H](C)O5)O4)O3)[C@H](C)C[C@@H]2C)[C@@H](C)C[C@@H]1C` [narasin], the “TGFβ induced proliferation (BrdU incorporation)” value in the data set with human fibroblasts (250 nM plus TGFβ) was “significantly blocked TGFβ induced proliferation”. For the same molecule, the “basal fibroblast proliferation (BrdU incorporation)” value in the data set on human fibroblasts (250 nM, without TGFβ) was “did not affect basal fibroblast proliferation; also recorded: Neither salinomycin nor narasin blocked basal fibroblast proliferation”. For the same molecule, the “expression of αSMA and calponin” value in data set [5] is “inhibited expression of αSMA and calponin”.
